Series [1] can be described thus: Solubility characterization in RPMI medium (absorbance at 540 nm, transparency). On the set-up: key to absorbance at 540 nm increased compared to the control / absorbance at 540 nm decreased compared to the control / absorbance at 540 nm reduced compared to the control: difference in OD at 540 nm vs untreated medium control. The format is physicochemical. From the text: In spite of the promising pharmaceutical efficacies of the ginsenoside compounds, the therapeutic potential of ginsenosides is largely restricted by their lowering bioavailability when orally distributed (< 5%) due to their undesirable physicochemical properties, such as low water solubility, low biomembrane permeability, instability in the gastrointestinal fluid, and extensive body metabolism. Depending on the solubility of each candidate substance, the black text under the plate is clearly visible when dissolved well. Since UV/vis absorbance spectra-based turbidimetry has the advantage of being fast and non-destructive in common drug solubility tests, a determination of their turbidity or optical density (OD) in liquid cultures was employed to monitor the water-solubility of the ginsenoside candidates. The λmax of the UV/vis absorbance spectra of the ginsenoside compounds and their Roswell Park Memorial Institute (RPMI) medium were identical at 540 nm, and the difference in OD between the absorbances of the ginsenosides and the media, used only as a control, was plotted (Figure 4). The increased absorbance signals of the PPT and PPD were derived from the increased OD signal of turbidity-based interference by insoluble compounds in the medium. The corresponding UV/vis absorbance results of each candidate substance in the media is discussed as follows:
To determine the concentration of ginsenoside compounds to be treated on the cells, the solubility of each compound in RPMI-1640 medium was evaluated. Specifically, the solubility of each ginsenoside compound was observed by UV/vis absorbance at 540 nm, and the transparency of the medium was measured by the visually observed degree to which the marked black text at the bottom of the plate was visible (transparency of the medium). In addition, the change in absorbance at 540 nm compared to the control was measured by using the medium not treated with the ginsenoside compound as a control.

In series [2] the target is T1, BTK (Homo sapiens, UniProt Q06187).
T1 construct: host or cells: Ramos cells
T1 sequence (Q06187 whole entry): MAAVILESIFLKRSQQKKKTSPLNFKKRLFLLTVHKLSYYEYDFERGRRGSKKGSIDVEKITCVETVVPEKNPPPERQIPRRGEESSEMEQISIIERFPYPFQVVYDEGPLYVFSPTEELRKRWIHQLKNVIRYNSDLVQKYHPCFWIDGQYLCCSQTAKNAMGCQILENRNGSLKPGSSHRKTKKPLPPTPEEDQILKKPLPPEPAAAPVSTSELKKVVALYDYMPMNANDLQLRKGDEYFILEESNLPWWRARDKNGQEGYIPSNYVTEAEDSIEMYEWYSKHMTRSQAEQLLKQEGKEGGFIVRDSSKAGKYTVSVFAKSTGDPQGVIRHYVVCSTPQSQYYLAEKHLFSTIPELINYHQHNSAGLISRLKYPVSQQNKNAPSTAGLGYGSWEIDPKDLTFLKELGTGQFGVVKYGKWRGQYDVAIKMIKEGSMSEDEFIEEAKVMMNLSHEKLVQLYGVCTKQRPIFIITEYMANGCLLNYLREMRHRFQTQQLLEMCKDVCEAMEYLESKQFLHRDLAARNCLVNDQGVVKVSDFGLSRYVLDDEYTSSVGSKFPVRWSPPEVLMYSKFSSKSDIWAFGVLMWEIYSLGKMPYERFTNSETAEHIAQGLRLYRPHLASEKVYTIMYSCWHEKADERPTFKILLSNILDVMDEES
Description: Cell-based phosphorylation ELISA, p-BTK/BTK in Ramos cells. As to conditions: for BTK inhibitory activity (p-BTK/BTK, ELISA), in words: compared to Ibrutinib or the DMSO-treated group. An excerpt:
Although BTK is almost constant in cells, the expression level of p-BTK varies depending on the degree of BTK activation and inhibition, and thus the expression level of p-BTK is based on the expression of BTK (p-BTK/BTK).
When BTK is activated or inhibited, the phosphorylation % of BTK is increased or decreased accordingly, which can be confirmed by the amount of phosphorylated BTK in the cell. After treating the ginsenoside compound on the cells, the amount of BTK inhibition of the ginsenoside compound was compared and analyzed by the amount of phosphorylated BTK in the cell. […] The BTK to GAPDH expression ratio was confirmed.
The Ramos cells (~1 × 10^4) were cultured in 96-well cell culture plates. […] Free DMSO was used as a negative control group. […] The expression level of each p-BTK and the expression level of BTK were compared and analyzed using the ratios (p-BTK/GAPDH and BTK/GAPDH) based on the expression level of each […]. Namely, the p-BTK/BTK ratio means the (p-BTK/GAPDH)/(BTK/GAPDH) ratio, which is simply expressed as p-BTK/BTK.
Background: ELISA stands for enzyme-linked immunosorbent assay.

Series [3] concerns the target T1, BTK. Put plainly: Western blotting, p-BTK/BTK in Ramos cells. The class given is cell-based. As to conditions: α-IgM stimulated, stimulation (α-IgM antibody (+), DMSO) group as reference (100%). On the procedure:
The Ramos cells (~3 × 10^6) were famished of serum for 1 h and treated with ginsenosides for 1 h, and then washed with phosphate-buffered saline (Welgene, Korea), followed by stimulation with 1 μg/mL of goat F(ab’)2 anti-human IgM (Southern Biotech, Birmingham, AL, USA) for 10 min on ice. The cells were then lysed in a radioimmunoprecipitation assay (RIPA) buffer (Sigma-Aldrich, St. Louis, MO, USA) and the proteins were separated by SDS-PAGE (Bio-Rad Laboratories, Hercules, CA, USA) and transferred to polyvinylidene fluoride membranes (EMD Millipore, Billerica, MA, USA). The proteins were detected with anti-BTK Y223 (Cell Signaling Technology, Danvers, MA, USA), anti-BTK (53/BTK, Cell Signaling Technology) and anti-glyceraldehyde 3-phosphate dehydrogenase (anti-GAPDH) (Santa Cruz Biotechnology, Santa Cruz, CA, USA) antibodies. The protein signals were monitored by chemiluminescence using Enhanced ChemiLuminescence (ECL) western blotting detection reagent (EMD Millipore), and the scanned blots were quantified using a Multi-Image analyzer (Fujifilm, Japan). The phosphorylation % of each lane was determined using Multi-Gauge software (Fujifilm). The IC50 value was measured using control α-IgM+ set at 100% and control α-IgM− set at 0%.
The Ramos cells (~3 × 10^6) were cultured in 6-well cell culture plates. Both the control and ginsenoside compounds were dissolved in DMSO. For the Western blotting, the α-IgM- groups and α-IgM+ groups in the presence of DMSO were used as the non-stimulation control and stimulation control, respectively, following by the quantitation of the expression ratio of p-BTK, BTK, and β-tubulin. The expression level of each p-BTK and the expression level of BTK were compared and analyzed using the ratios (p-BTK/β-tubulin and BTK/β-tubulin) based on the expression level of each β-tubulin. Namely, the p-BTK/BTK ratio means the (p-BTK/β-tubulin)/(BTK/β-tubulin) ratio, which is simply expressed as p-BTK/BTK.
In general terms: In western blotting, separated proteins are transferred to a membrane and probed.

The target in series [4] is purified BTK (Homo sapiens, UniProt Q06187). Put plainly: FRET-based kinase assay (Z'-LYTE) for BTK inhibition. The class given is biochemical. The conditions noted are these: 0.625 μg/mL purified BTK; for BTK inhibitory effect (inhibition %): 25, 50, and 100 μg/mL, depending on the concentration; for pIC50: FRET assay. On the procedure:
For the identification of the BTK inhibitory activity of ginsenoside-derived candidate substances and the screening of them to show pharmacological efficacy, the BTK-inhibitory activity of ginsenoside compounds and their in vitro BTK inhibitory activity was measured as the inhibition rate (inhibition %) of the decreased phosphorylation rate compared to the BTK activity without ginsenoside treatment in a FRET assay.
In order to evaluate the BTK inhibitory activity of the ginsenoside compound, a kinase assay using a Z’-LYTE Kinase Assay Kit from Thermo Fisher Scientific was performed. A fluorescent microplate reader was used to measure the Fluorescence Resonance Energy Transfer (FRET) between coumarin and fluorescein dyes. The assay was optimized for BTK, as described in the manufacturer’s protocol. The BTK activity (%) was evaluated by measuring the ratio of the emission signal (445 nm/520 nm) according to the phosphorylation % of the substrate by BTK.

[5] abbreviates: solubility-dependent concentration.
[6] abbreviates: read-out: IC50 levels that inhibited BTK activity.

pIC50: −log10 of the molar value. Where two headings read alike, the source gives them in different places.

Five molecules from PMC7247683, “Molecular Drug Discovery of Single Ginsenoside Compounds as a Potent Bruton’s Tyrosine Kinase Inhibitor” (International Journal of Molecular Sciences, 2020) can be followed below.

Chain of purified BTK (Q06187 whole entry): as above

With `CC(C)=CCCC(C)(O)C1CCC2(C)C1C(O)CC1C3(C)CCC(O)C(C)(C)C3CCC12C` (stereo not drawn) [PPD, protopanaxadiol], the “appearance / solubility in the medium” value in series [1] is “turbid”. Also, the “solubility in the medium, overall” value in series [1] is given as “poorly soluble in the medium at higher concentrations”. Also, the “absorbance at 540 nm increased compared to the control” value (from here on “absorbance at 540 nm increased”) is on record as 0.155 in series [1] (0.2 mM), 0.442 in series [1] (0.5 mM), 0.835 in series [1] (1 mM) and 1.153 in series [1] (1.5 mM). The “BTK inhibitory activity (p-BTK/BTK, ELISA)” value in series [2] (at low concentrations) amounted to 9.58%. Further, the “BTK inhibitory activity (p-BTK/BTK, ELISA), in words” value in series [2] (setting [5]) is given as “substantial BTK inhibitory activity”. The “BTK inhibitory activity (p-BTK/BTK, Western blotting)” value in series [3] is recorded as “about 40%”.
With `CC(C)=CCC[C@](C)(O)[C@H]1CC[C@]2(C)[C@@H]1[C@H](O)C[C@@H]1[C@@]3(C)CC[C@H](O)C(C)(C)[C@@H]3[C@@H](O)C[C@]12C` [PPT, protopanaxatriol], the “BTK inhibitory effect (inhibition %)” value in series [4] is ≥ 70%. Besides, the pIC50 – broadly, −log10 of the IC50, conventionally taken in molar units – in series [4] (setting [6]) was 3.87. Moreover, the “appearance / solubility in the medium” value in series [1] is recorded as “intensively turbid”. Further, in series [1], the “solubility in the medium, overall” value is on record as “poorly soluble in the medium at higher concentrations”. In addition, the “absorbance at 540 nm increased” value in series [1] (0.5 mM) worked out at 0.309; in series [1] (0.8 mM), 0.508; in series [1] (1.7 mM), 1.118. For the same molecule, the “BTK inhibitory activity (p-BTK/BTK, ELISA)” value in series [2] (at low concentrations) is recorded as 15.98%. The “BTK inhibitory activity (p-BTK/BTK, ELISA), in words” value in series [2] (setting [5]) was “substantial BTK inhibitory activity”. Also, the “BTK inhibitory activity (p-BTK/BTK, Western blotting)” value in series [3] is “about 30%”.
Consider `CC(C)=CCCC(C)(OC1OC(COC2OCC(O)C(O)C2O)C(O)C(O)C1O)C1CCC2(C)C1C(O)CC1C3(C)CCC(OC4OC(CO)C(O)C(O)C4OC4OC(CO)C(O)C(O)C4O)C(C)(C)C3CCC12C` (stereo not drawn) [Rb2], for which, in series [4], the “BTK inhibitory effect (inhibition %)” value is listed as ≥ 70%. Further, the pIC50 in series [4] (setting [6]) is 5.03. In addition, in series [1] (0.2 mM in RPMI medium), the “absorbance at 540 nm increased” value is recorded as 0.042 and the “appearance / solubility in the medium” value was “transparent”. The “absorbance at 540 nm decreased compared to the control” value in series [1] (0.6 mM in RPMI medium) stood at 0.007. Besides, the “absorbance at 540 nm decreased compared to the control” value in series [1] (1.0 mM in RPMI medium) is listed as 0.006. Besides, the “solubility in the medium, overall” value in series [1] (RPMI medium) is recorded as “soluble in the medium at a high concentration”. In series [2] (setting [5]), the “BTK inhibitory activity (p-BTK/BTK, ELISA)” value is > 23% and the “BTK inhibitory activity (p-BTK/BTK, ELISA), in words” value was “substantial BTK inhibitory activity”. For the same molecule, the “BTK inhibitory activity (p-BTK/BTK, Western blotting)” value in series [3] was ~ 17%.
Take `CC(C)=CCCC(C)(OC1OC(COC2OCC(O)C(O)C2O)C(O)C(O)C1O)C1CCC2(C)C1C(O)CC1C3(C)CCC(OC4OC(CO)C(O)C(O)C4OC4OC(CO)C(O)C(O)C4O)C(C)(C)C3CCC12C` (stereo not drawn) [Rb3]: the “BTK inhibitory effect (inhibition %)” value in series [4] is recorded as ≥ 70%. The pIC50 in series [4] (setting [6]) was 4.29. In series [1] (0.9 mM in RPMI medium), the “absorbance at 540 nm increased” value is given as 0.047 and the “appearance / solubility in the medium” value is on record as “transparent”. Further, the “absorbance at 540 nm reduced compared to the control” value in series [1] (2.7 mM in RPMI medium) came out at 0.004. Besides, the “solubility in the medium, overall” value in series [1] (RPMI medium) is “soluble in the medium at a high concentration”. In series [2] (setting [5]), the “BTK inhibitory activity (p-BTK/BTK, ELISA)” value is reported as > 23% and the “BTK inhibitory activity (p-BTK/BTK, ELISA), in words” value was “substantial BTK inhibitory activity”. Moreover, in series [3], the “BTK inhibitory activity (p-BTK/BTK, Western blotting)” value is on record as ~ 17%.
`CC(C)=CCCC(C)(O)C1CCC2(C)C1C(O)CC1C3(C)CCC(OC4OC(CO)C(O)C(O)C4O)C(C)(C)C3CCC12C` (stereo not drawn) [Rh2]: the “BTK inhibitory effect (inhibition %)” value in series [4] is listed as ≥ 70%. In series [4] (IC50 levels that inhibited BTK activity), this molecule gave a pIC50 of 4.21. In addition, the “absorbance at 540 nm increased” value is listed as 0.037 in series [1] (0.4 mM in RPMI medium), 0.111 in series [1] (0.6 mM in RPMI medium) and 0.271 in series [1] (1.2 mM in RPMI medium). In addition, in series [1] (1.2 mM in RPMI medium), the “appearance / solubility in the medium” value was “slightly soluble”. Further, the “solubility in the medium, overall” value in series [1] (RPMI medium) was “soluble in the medium at a low concentration, while insoluble at a high concentration”.
